ChEMBL document CHEMBL1201862, “PubChem BioAssay data set” (2004)
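Cultured in 96-well plates, cells were exposed to test compound for 48 hours across five concentrations. At the GI50, growth is halved.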 Active and inactive are the calls of the source. Rule as the data show it: active = GI50 up to about 1.1 µM and inactive = higher.

Key:
Test in all cases: inhibition of tumour cell growth, NCI panel, 48 h
[1] = system: A498
[2] = system: ACHN
[3] = system: HCC 2998
[4] = system: HL-60
[5] = system: HOP-92
[6] = system: Hs-578T
[7] = system: M14
[8] = system: MCF7
[9] = system: MDA-MB-435
[10] = system: OVCAR-8
[11] = system: PC-3
[12] = system: RPMI-8226
[13] = system: RXF 393
[14] = system: SF-268
[15] = system: SK-MEL-2
[16] = system: SR
[17] = system: TK-10
[18] = system: U-251
[19] = system: UACC-257
[20] = system: UACC-62

## CN1CCN(CC(=O)Nc2cccc3ccccc23)CC1
[1]
  GI50: > 100 µM (inactive)
[2]
  GI50: > 100 µM (inactive)
[3]
  GI50: > 100 µM (inactive)
[4]
  GI50: > 100 µM (inactive)
[5]
  GI50: > 100 µM (inactive)
[6]
  GI50: > 100 µM (inactive)
[7]
  GI50: > 100 µM (inactive)
[8]
  GI50: > 100 µM (inactive)
[9]
  GI50: > 100 µM (inactive)
[10]
  GI50: > 100 µM (inactive)
[11]
  GI50: > 100 µM (inactive)
[12]
  GI50: > 100 µM (inactive)
[13]
  GI50: > 100 µM (inactive)
[14]
  GI50: > 100 µM (inactive)
[15]
  GI50: > 100 µM (inactive)
[16]
  GI50: > 100 µM (inactive)
[17]
  GI50: > 100 µM (inactive)
[18]
  GI50: > 100 µM (inactive)
[19]
  GI50: > 100 µM (inactive)
[20]
  GI50: > 100 µM (inactive)

## Nc1cc(S(=O)(=O)O)cc2ccc(S(=O)(=O)O)cc12
[1]
  GI50: > 100 µM (inactive)
[2]
  GI50: > 100 µM (inactive)
[3]
  GI50: > 100 µM (inactive)
[4]
  GI50: > 100 µM (inactive)
[5]
  GI50: > 100 µM (inactive)
[6]
  GI50: > 100 µM (inactive)
[7]
  GI50: > 100 µM (inactive)
[8]
  GI50: > 100 µM (inactive)
[9]
  GI50: > 100 µM (inactive)
[10]
  GI50: > 100 µM (inactive)
[11]
  GI50: > 100 µM (inactive)
[12]
  GI50: > 100 µM (inactive)
[13]
  GI50: > 100 µM (inactive)
[14]
  GI50: > 100 µM (inactive)
[15]
  GI50: > 100 µM (inactive)
[16]
  GI50: > 100 µM (inactive)
[17]
  GI50: > 100 µM (inactive)
[18]
  GI50: > 100 µM (inactive)
[19]
  GI50: > 100 µM (inactive)
[20]
  GI50: > 100 µM (inactive)

## COc1ccc(NC(S)=Nc2cccc(C)n2)cc1
[1]
  GI50: > 100 µM (inactive)
[2]
  GI50: > 100 µM (inactive)
[3]
  GI50: > 100 µM (inactive)
[4]
  GI50: > 100 µM (inactive)
[5]
  GI50: 39.5 µM (inactive)
[6]
  GI50: 58.2 µM (inactive)
[7]
  GI50: > 100 µM (inactive)
[8]
  GI50: > 100 µM (inactive)
[9]
  GI50: > 100 µM (inactive)
[10]
  GI50: 96.8 µM (inactive)
[11]
  GI50: > 100 µM (inactive)
[12]
  GI50: > 100 µM (inactive)
[13]
  GI50: 28.4 µM (inactive)
[14]
  GI50: 55.1 µM (inactive)
[15]
  GI50: > 100 µM (inactive)
[16]
  GI50: > 100 µM (inactive)
[17]
  GI50: > 100 µM (inactive)
[18]
  GI50: 33.5 µM (inactive)
[19]
  GI50: > 100 µM (inactive)
[20]
  GI50: > 100 µM (inactive)

## CC1=C(C(=O)Nc2ccccc2C)C(c2ccc(C3C(C(=O)Nc4ccccc4C)=C(C)NC(C)=C3C(=O)Nc3ccccc3C)cc2)C(C(=O)Nc2ccccc2C)=C(C)N1
[1]
  GI50: 15.5 µM (inactive)
[2]
  GI50: 4.52 µM (inactive)
[3]
  GI50: 4.51 µM (inactive)
[4]
  GI50: 2.53 µM (inactive)
[5]
  GI50: 8.38 µM (inactive)
[6]
  GI50: 14 µM (inactive)
[7]
  GI50: 2.82 µM (inactive)
[8]
  GI50: 3.37 µM (inactive)
[9]
  GI50: 4.32 µM (inactive)
[10]
  GI50: 2.8 µM (inactive)
[11]
  GI50: 4.39 µM (inactive)
[12]
  GI50: 2.51 µM (inactive)
[13]
  GI50: 4.31 µM (inactive)
[14]
  GI50: 2.58 µM (inactive)
[15]
  GI50: 9.23 µM (inactive)
[16]
  GI50: 2.67 µM (inactive)
[17]
  GI50: 10.7 µM (inactive)
[18]
  GI50: 2.25 µM (inactive)
[19]
  GI50: 2.8 µM (inactive)
[20]
  GI50: 2.03 µM (inactive)

## CC(=O)c1sc2[n+](c1C)C(=O)/C(=C\c1ccccc1Cl)S2
[1]
  GI50: 29.7 µM (inactive)
[2]
  GI50: 20.5 µM (inactive)
[3]
  GI50: 20 µM (inactive)
[4]
  GI50: 20.7 µM (inactive)
[5]
  GI50: 56.2 µM (inactive)
[6]
  GI50: 47.8 µM (inactive)
[7]
  GI50: 18.6 µM (inactive)
[8]
  GI50: 16.1 µM (inactive)
[9]
  GI50: 15.3 µM (inactive)
[10]
  GI50: 24.3 µM (inactive)
[11]
  GI50: 22.5 µM (inactive)
[12]
  GI50: 17.5 µM (inactive)
[13]
  GI50: 26.1 µM (inactive)
[14]
  GI50: 23.2 µM (inactive)
[15]
  GI50: 24 µM (inactive)
[16]
  GI50: 18.3 µM (inactive)
[17]
  GI50: 26.9 µM (inactive)
[18]
  GI50: 16.6 µM (inactive)
[19]
  GI50: 19.4 µM (inactive)
[20]
  GI50: 13.1 µM (inactive)

## Cc1cc(S(=O)(=O)Nc2nc3ccccc3nc2-c2ccc(Cl)cc2)c(S)cc1Cl
[1]
  GI50: 16.3 µM (inactive)
[2]
  GI50: 16.7 µM (inactive)
[3]
  GI50: 15.7 µM (inactive)
[4]
  GI50: 21.6 µM (inactive)
[5]
  GI50: 20.4 µM (inactive)
[6]
  GI50: 27 µM (inactive)
[7]
  GI50: 19.3 µM (inactive)
[8]
  GI50: 17 µM (inactive)
[9]
  GI50: 17.3 µM (inactive)
[10]
  GI50: 23.2 µM (inactive)
[11]
  GI50: 17.1 µM (inactive)
[12]
  GI50: 23.1 µM (inactive)
[13]
  GI50: 23 µM (inactive)
[14]
  GI50: 17.7 µM (inactive)
[15]
  GI50: 13.7 µM (inactive)
[16]
  GI50: 17.3 µM (inactive)
[17]
  GI50: 28.6 µM (inactive)
[18]
  GI50: 16.4 µM (inactive)
[19]
  GI50: 21.7 µM (inactive)
[20]
  GI50: 12.2 µM (inactive)

## CC1=CC(=O)c2c(O)cccc2C1=O [PLUMBAGIN]
[1]
  GI50: 5.86 µM (inactive)
[2]
  GI50: 1.6 µM (inactive)
[3]
  GI50: 2.07 µM (inactive)
[4]
  GI50: 0.152 µM (active)
[5]
  GI50: 0.465 µM (active)
[6]
  GI50: 2.91 µM (inactive)
[7]
  GI50: 1.86 µM (inactive)
[8]
  GI50: 1.79 µM (inactive)
[9]
  GI50: 1.73 µM (inactive)
[10]
  GI50: 1.69 µM (inactive)
[11]
  GI50: 2.21 µM (inactive)
[12]
  GI50: 0.891 µM (active)
[13]
  GI50: 1.64 µM (inactive)
[14]
  GI50: 2.17 µM (inactive)
[15]
  GI50: 1.85 µM (inactive)
[16]
  GI50: 1.69 µM (inactive)
[17]
  GI50: 1.71 µM (inactive)
[18]
  GI50: 6.17 µM (inactive)
[19]
  GI50: 1.81 µM (inactive)
[20]
  GI50: 1.94 µM (inactive)
